Experiment [1] deals with mouse formalin pain model. The experiment can be described thus: Mouse formalin pain model (late phase licking). In kind it is in vivo. To be noted: male NSA mice, 60 mg/kg i.p., 30 minutes prior to formalin; FIG. 5. As for the experimental part:
The analgesic effect of test compounds was assessed in a mouse formalin pain model (Hole et al., 1993, Pain 53:247-254). Male NSA mice weighing between 27 and 30 g were housed with access to food and water ad libitum until the test date. On the day of testing, they were given a period of 1 h to adjust to the test chamber. Test compounds or vehicle control (75% polyethylene glycol in 5% dextrose+water) were administered i.p. at 30 minutes prior to the administration of formalin. A solution of 20 μl of 2.5% formalin was then injected subcutaneously into the dorsal side of the hind paw of the test mouse. Immediately following formalin injection, the mice were observed over the next 50 min and the time spent licking the injected hind paw was recorded. The observation time was broken down into 5 minute “bins”, with 10 bins in total. The first 5-min bin is the early phase, considered to be reflective of acute pain. Bins three to ten make up the late phase, considered a measure of chronic inflammatory pain. The results for the late phase are expressed as the averaged mean time (in seconds) that mice spent licking in a 5-min period.
Dose-response relationship was conducted in the range of 3 to 60 mg/kg. Statistical differences in response were determined by one-way analysis of variance with the Dunnett's post-hoc test by using the Prism3 statistical software (GraphPad, Inc., San Diego, Calif.).

The test system of experiment [2] is human GABAA receptor subunits (α1β1-3γ2L GABAA receptors). The experiment can be described thus: Modulation of GABA-evoked currents in Xenopus oocytes (2-electrode clamp), GABA subunit selectivity. Particulars: for GABA subunit selectivity: modulation of GABA EC10-evoked currents in Xenopus oocytes expressing α1β1-3γ2L, FIGS. 4A and 4B. In kind it is cell-based. As for the experimental part:
GABA subunit selectivity of etifoxine enantiomers was measured based on their ability to modulate the GABA-evoked currents in Xenopus oocytes.
Receptor mRNA preparation: cDNA clones encoding human GABAA receptor subunits were obtained from commercial sources. mRNA was prepared using conventional techniques with commercially-available “mMessage machine” kits (Ambion). Individual mRNAs (˜1 μg/μL) were stored in aliquots at −80° C.
mRNA injections into Xenopus oocytes: Preparation and micro-injection of oocytes were performed as reported in detail previously (see, Whittemore et al., 1996, Mol Pharmacol 50: 1364-1375). Individual oocytes were injected with 5-50 ng of mRNA at 5:1:1 (GABA). For example, individual oocytes were injected with a 5:1:1 mixture of α1, β1-3, and γ2L (˜5-50 ng of each subunit per cell) to produce expression of α1β1-3γ2L GABAA receptors. Following injections, oocytes were maintained at 16-17° C. in Barth's medium containing (in mM): NaCl, 88; KCl, 1; CaCl2, 0.41; Ca(NO3)2, 0.33; MgSO4, 0.82; NaHCO3, 2.4; HEPES 5; pH=7.4, with 0.1 mg/ml gentamycin sulfate.
Oocyte Electrophysiological recordings: Individual oocytes were placed on a nylon mesh in a 35 mm dish, perfused with frog Ringer (see, Whittemore et al., supra), and voltage clamped at a holding potential of −70 mV. In some cases, simple voltage steps were made to test voltage-dependence. Oocytes were perfused with fresh Ringer or exposed to GABA ±modulators using a custom-made gravity-driven perfusion system consisting of a linear array of 3 capillary tubes. The concentration of GABA used to evoke control currents was adjusted for each individual oocyte to be 10% of the maximal current (EC10) measured in that cell. The concentration of GABA required to evoke EC10 ‘control’ currents varied between ˜2 and 12 μM. […] Data are expressed as % of control currents (% modulation=100*[(modulated current/GABA control current)−1].

With `CCNC1=Nc2ccc(Cl)cc2C(C)(c2ccccc2)O1` (single isomer, unassigned) [R-etifoxine, 6-chloro-2-(ethylamino)-4-methyl-4-phenyl-4H-3,1-benzoxazine], the “analgesic effect in the formalin test (late phase licking)” value in experiment [1] was “active”. Besides, the GABA subunit selectivity entry in experiment [2] is given as “little or no GABA subunit selectivity”.

As to `CCNC1=Nc2ccc(Cl)cc2C(C)(c2ccccc2)O1` (single isomer, unassigned) [S-etifoxine, 6-chloro-2-(ethylamino)-4-methyl-4-phenyl-4H-3,1-benzoxazine], the GABA subunit selectivity entry in experiment [2] was “shows selectivity for GABA receptor comprising β subunit”. The “selectivity for β2 subunit versus β1 subunit” value in experiment [2] (modulation of GABA EC10-evoked currents in Xenopus oocytes, FIG. 4B) was “more selective for β2 subunit than β1 subunit”.

The values are drawn from patent US20080039453A1, “Enantiomerically pure R-etifoxine, pharmaceutical compositions thereof and methods of their use” (priority 2006, published 2008).
